Assay results reported in patent US20190167771A1, “CONTROL ANGIOGENESIS BY REGULATING PHOSPHORYLATION OF SERYL-tRNA SYNTHETASE (SerRS)” (The Scripps Research Institute, priority 2016, published 2019).

Tested on: Vegfa
Experiment: Vegfa mRNA by qRT-PCR in zebrafish embryos with SerRS knockdown and mRNA co-injection
Type: in vivo
Details: human SerRS mRNA co-injected with SerRS-MO, 3 dpf
Procedure: In FIG. 2A, wild type SerRS (SerRS^WT), its mutants with double substitutions of serine 101 and 241 with alanine or aspartic acid residues (SerRS^S101A/S241A and SerRS^S101D/S241D), or empty vector were transfected into HEK293 cells. The expression levels of SerRS proteins was measured by immunoblot (bottom) and VEGFA expression was determined by qRT-PCR (means±SEM from three independent experiments; ***P<0.0001). In FIGS. 2B-D, the roles of SerRS^S101A/S241A and SerRS^S101D/S241D in regulating vascular development in vivo in zebrafish were examined by co-injection of SerRS^S101A/S241A and SerRS^S101D/S241D mRNAs into one-cell-stage embryos whose endogenous SerRS was knocked down by injection of antisense morpholino (SerRS-MO) that led to abnormal high expression of Vegfa and hypervascularization (shown by short bold arrows in FIG. 2C). At 3 day post fertilization (dpf), embryos were harvested and Vegfa expression levels were measured by qRT-PCR (means±SEM, n=125-211; *P<0.01, **P<0.001) (B). The development of intersegmental vessel (ISV) at 3 dpf was examined (C) and the statistics of ISV abnormal branching rescued by SerRS^WT or mutant SerRS mRNA injections was analyzed (D; χ^2-test,* P>0.05 vs SerRS^WT, **P>0.1 vs SerRS-MO, ***P<1×10^−28 vs control-MO). In FIG. 2E, the binding affinities of SerRS^WT or SerRS^S101D/S241D with ^32P labeled DNA fragments corresponding to SerRS binding site on human VEGFA promoter were examined by EMSA. In FIG. 2F, the binding of SerRS^WT, SerRS^S101A/S241A, or SerRS^S101D/S241D on VEGFA promoter in HEK293 cells was examined by chromatin immunoprecipitation (ChIP) and qPCR (means±SEM from two independent experiments; ***P<0.0001). In FIG. 2G, the binding of endogenous SerRS on VEGFA promoter during hypoxia course was monitored by ChIP (means±SEM from three independent experiments; *P<0.05, **P<0.005 vs normal).
Total RNA was isolated from cells and zebrafish embryos by TRIzol Reagent (ThermoFisher Scientific). […] of the total RNA from each sample was reversely transcribed to cDNA by M-MLV reverse transcriptase (Promega, Madison, Wis., USA). All real-time PCR reactions were performed using the StepOnePlus Real-Time PCR system (ThermoFisher Scientific) with SYBR Select Master Mix ThermoFisher Scientific). […]

Substance | rescue of Vegfa mRNA increase caused by SerRS-MO
SerRS^S101A/S241A: phosphorylation-deficient human SerRS double mutant, serine 101 and 241 to alanine, SEQ ID NO: 4 (mouse version in matrigel assay) | rescued or largely rescued
SerRS^WT: wildtype human seryl-tRNA synthetase protein, SEQ ID NO: 1 (mouse wild type used in the 3B11 matrigel assay) | rescued or largely rescued
SerRS^S101D/S241D: SerRS with double substitutions of S101 and S241 with aspartic acid, mimics the phosphorylated SerRS | no rescue effect at all
